# Data as given in patent US4334019A, “Process for producing de(mycinosyloxy)tylosin” (Eli Lilly and Company, priority 1981, dated 1982).
# Experiments:
# [1] = test system: Streptomyces fradiae NRRL 11271; assay: Antibiotic sensitivity (sensitivity discs), NRRL 11271; assay type: cell-based; conditions: discs: chloramphenicol 30 μg, erythromycin 15 μg, cephaloridine 30 μg, lincomycin 2 μg, polymyxin B 300 units, streptomycin 10 μg, tetracycline 30 μg, vancomycin 30 μg; further: key: -: resistance (no zones of inhibition); +: sensitivity (zones of inhibition); trace of sensitivity
# From the text: (§1) ^a Determined by using sensitivity discs padded onto seededagar
# [2] = test system: Streptomyces fradiae E2724.1; assay: Antibiotic sensitivity (sensitivity discs), E2724.1; assay type: cell-based; conditions: discs: chloramphenicol 30 μg, erythromycin 15 μg, cephaloridine 30 μg, lincomycin 2 μg, polymyxin B 300 units, streptomycin 10 μg, tetracycline 30 μg, vancomycin 30 μg; further: key: -: resistance (no zones of inhibition); +: sensitivity (zones of inhibition); trace of sensitivity
# From the text: as §1
# [3] = test system: Pasteurella multocida; assay: MIC, standard agar-dilution assay, Pasteurella multocida; assay type: cell-based
# [4] = test system: Mycoplasma gallisepticum; assay: MIC, standard agar-dilution assay, Mycoplasma gallisepticum; assay type: cell-based; conditions: Mycoplasmoides gallisepticum
# [5] = test system: Streptococcus sp. (Group D) 282; assay: MIC, standard agar-dilution assay, Streptococcus sp. (Group D) 282; assay type: cell-based
# [6] = test system: Streptococcus pyogenes C203; assay: MIC, standard agar-dilution assay, Streptococcus pyogenes C203; assay type: cell-based
# [7] = test system: Pasteurella hemolytica; assay: MIC, standard agar-dilution assay, Pasteurella hemolytica; assay type: cell-based
# [8] = test system: Streptococcus pyogenes C203; assay: In vivo activity against experimental bacterial infection in mice (ED50); conditions: C203, sc, subcutaneous, two doses, bacterial challenge 268 X LD50, effective dose to protect 50% of the test animals
# Protocol: The DMOT compounds have shown in vivo antimicrobial activity against experimental bacterial infections. When two doses of test compound were administered to mice in experimental infections, the activity observed was measured as an ED50 value [effective dose in mg/kg to protect 50% of the test animals: see Warren Wick, et al., J. Bacteriol. 81, 233-235 (1961)].
# ^a Subcutaneous; mg/kg × 2
# [9] = test system: gram-positive microorganisms and Mycoplasma species; assay: Growth inhibition of pathogenic organisms (general statement); assay type: cell-based
# [10] = test system: Mycoplasma hyopneumoniae; assay: MIC, standard agar-dilution assay, Mycoplasma hyopneumoniae; assay type: cell-based; conditions: Mesomycoplasma hyopneumoniae
# [11] = Solubility; assay type: physicochemical; conditions: free base
# [12] = Electrometric titration of DMOT (pKa); assay type: physicochemical; conditions: 66% aqueous dimethylformamide
# From the text: Electrometric titration of DMOT in 66% aqueous dimethylformamide indicates the presence of a titratable group with a pKa value of about 7.3.
# [13] = test system: Streptococcus pneumoniae Park I; assay: MIC, standard agar-dilution assay, Streptococcus pneumoniae Park I; assay type: cell-based
# [14] = test system: Mycoplasma hyorhinis; assay: MIC, standard agar-dilution assay, Mycoplasma hyorhinis; assay type: cell-based
# [15] = test system: Staphylococcus aureus 3055; assay: MIC, standard agar-dilution assay, Staphylococcus aureus 3055; assay type: cell-based
structure (smiles),measurement,setting,value
O=C(Cc1cccs1)N[C@@H]1C(=O)N2C(C(=O)[O-])=C(C[n+]3ccccc3)CS[C@H]12 [Cephaloridine],"Antibiotic sensitivity, NRRL 11271",[1],+
same,"Antibiotic sensitivity, E2724.1",[2],+
O=C(N[C@H](CO)[C@H](O)c1ccc([N+](=O)[O-])cc1)C(Cl)Cl [Chloramphenicol],"Antibiotic sensitivity, NRRL 11271",[1],+
same,"Antibiotic sensitivity, E2724.1",[2],+
"CCC1OC(=O)CC(O)C(C)C(OC2OC(C)C(OC3CC(C)(O)C(O)C(C)O3)C(N(C)C)C2O)C(CC=O)CC(C)C(=O)C=CC(C)=CC1C (stereo not shown) [DMOT, 23-de(mycinosyloxy)tylosin]",MIC,[3],6.25 µg/mL
same,MIC,[4],0.097 µg/mL
same,MIC,[5],0.5 µg/mL
same,MIC,[6],0.25 µg/mL
same,MIC,[7],25 µg/mL
same,ED50,[8],6.3 mg/kg
same,antibacterial activity (in words),[9],especially active against gram-positive microorganisms and Mycoplasma species
same,MIC,[10],0.39 µg/mL
same,solubility in polar organic solvents,"[11]; most polar organic solvents, such as acetone, methanol, ethanol, dimethylformamide, chloroform and dimethyl sulfoxide",soluble
same,solubility in water,[11]; water,sparingly soluble
same,pKa,[12],~7.3
same,MIC,[13],0.13 µg/mL
same,MIC,[14],0.78 µg/mL
same,MIC,[15],1 µg/mL
CC[C@H]1OC(=O)[C@H](C)[C@@H](O[C@H]2C[C@@](C)(OC)[C@@H](O)[C@H](C)O2)[C@H](C)[C@@H](O[C@@H]2O[C@H](C)C[C@H](N(C)C)[C@H]2O)[C@](C)(O)C[C@@H](C)C(=O)[C@H](C)[C@@H](O)[C@]1(C)O [Erythromycin],"Antibiotic sensitivity, NRRL 11271",[1],+
CCC[C@@H]1C[C@@H](C(=O)N[C@@H]([C@H]2O[C@H](SC)[C@H](O)[C@@H](O)[C@H]2O)[C@@H](C)O)N(C)C1 [Lincomycin],"Antibiotic sensitivity, NRRL 11271",[1],-
same,"Antibiotic sensitivity, E2724.1",[2],-
[H]/N=C(/N)N[C@H]1[C@H](O)[C@@H](O)[C@H](O[C@@H]2O[C@@H](C)[C@](O)(C=O)[C@H]2O[C@@H]2O[C@@H](CO)[C@H](O)[C@@H](O)[C@@H]2NC)[C@@H](N/C(N)=N\[H])[C@@H]1O [Streptomycin],"Antibiotic sensitivity, NRRL 11271",[1],+
same,"Antibiotic sensitivity, E2724.1",[2],+
CN(C)[C@@H]1C(O)=C(C(N)=O)C(=O)[C@@]2(O)C(O)=C3C(=O)c4c(O)cccc4[C@@](C)(O)[C@H]3C[C@@H]12 [Tetracycline],"Antibiotic sensitivity, NRRL 11271",[1],+
same,"Antibiotic sensitivity, E2724.1",[2],+
CN[C@H](CC(C)C)C(=O)N[C@H]1C(=O)N[C@@H](CC(N)=O)C(=O)N[C@H]2C(=O)N[C@H]3C(=O)N[C@H](C(=O)N[C@H](C(=O)O)c4cc(O)cc(O)c4-c4cc3ccc4O)[C@H](O)c3ccc(c(Cl)c3)Oc3cc2cc(c3O[C@@H]2O[C@H](CO)[C@@H](O)[C@H](O)[C@H]2O[C@H]2C[C@](C)(N)[C@H](O)[C@H](C)O2)Oc2ccc(cc2Cl)[C@H]1O [Vancomycin],"Antibiotic sensitivity, NRRL 11271",[1],+
same,"Antibiotic sensitivity, E2724.1",[2],+
"CCC1OC(=O)CC(O)C(C)C(OC2OC(C)C(OC3CC(C)(O)C(O)C(C)O3)C(N(C)C)C2O)C(CCO)CC(C)C(=O)C=CC(C)=CC1C (stereo not shown) [dihydro-DMOT, 20-dihydro-23-de(mycinosyloxy)tylosin]",antibacterial activity (in words),[9],especially active against gram-positive microorganisms and Mycoplasma species
